Source: ChEMBL document CHEMBL1201862, “PubChem BioAssay data set” (2004)
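48-hour exposure; five concentrations; linearly interpolated endpoints. GI50: concentration for 50% inhibition of growth.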 The source made the active and inactive calls. Cut-off read from the data, not from the text of the source: active = GI50 up to about 1.1 µM and inactive = higher.

Key:
Assay in all cases: growth of human tumour cells (NCI), 48 h
HCT-15 = tested on: HCT-15
OVCAR-5 = tested on: OVCAR-5
NCI-H226 = tested on: NCI-H226
HOP-92 = tested on: HOP-92
CAKI-1 = tested on: CAKI-1
BT-549 = tested on: BT-549
SF-268 = tested on: SF-268
LOX IMVI = tested on: LOX IMVI
SK-MEL-5 = tested on: SK-MEL-5
NCI-H23 = tested on: NCI-H23
SNB-19 = tested on: SNB-19
MCF7 = tested on: MCF7
A549 = tested on: A549
A498 = tested on: A498
MDA-MB-435 = tested on: MDA-MB-435
786-0 = tested on: 786-0
NCI-H460 = tested on: NCI-H460
MDA-N = tested on: MDA-N
SF-539 = tested on: SF-539
TK-10 = tested on: TK-10

Structure (SMILES) | GI50 (HCT-15) | GI50 (OVCAR-5) | GI50 (NCI-H226) | GI50 (HOP-92) | GI50 (CAKI-1) | GI50 (BT-549) | GI50 (SF-268) | GI50 (LOX IMVI) | GI50 (SK-MEL-5) | GI50 (NCI-H23) | GI50 (SNB-19) | GI50 (MCF7) | GI50 (A549) | GI50 (A498) | GI50 (MDA-MB-435) | GI50 (786-0) | GI50 (NCI-H460) | GI50 (MDA-N) | GI50 (SF-539) | GI50 (TK-10)
CN(C)c1ccc(/C=C(/NC(=O)c2ccccc2)C(=O)Nc2ccccc2C(=O)O)cc1 | > 100 µM | > 100 µM (inactive) | > 100 µM (inactive) | > 100 µM (inactive) | > 100 µM (inactive) | > 100 µM (inactive) | > 100 µM (inactive) | > 100 µM (inactive) | > 100 µM (inactive) | > 100 µM (inactive) | > 100 µM (inactive) | > 100 µM (inactive) | > 100 µM (inactive) | 57 µM (inactive) | > 100 µM (inactive) | > 100 µM (inactive) | > 100 µM (inactive) | > 100 µM (inactive) | > 100 µM (inactive) | –
C/C=C(\C)c1cc(=O)c2c(C)cc3c(c2o1)C(OC)(OC(C)=O)c1c(O)c(C2CC(C)(N(C)C)C(OC(C)=O)C(C)O2)cc(C2CC(N(C)C)C(OC(C)=O)C(C)O2)c1C3=O (stereo not given) | 1.05 µM | 2.17 µM (inactive) | 1.34 µM (inactive) | 1.28 µM (inactive) | 0.436 µM (active) | 2.27 µM (inactive) | 0.27 µM (active) | 0.512 µM (active) | 1.51 µM (inactive) | 1.02 µM (active) | 1.78 µM (inactive) | 1.64 µM (inactive) | 0.514 µM (active) | 1.27 µM (inactive) | 1.52 µM (inactive) | 0.288 µM (active) | – | 1.64 µM (inactive) | 1.55 µM (inactive) | 1.45 µM (inactive)
CC(=O)C(O)N1C(=O)C=CC1=O (stereo not given) | 1.84 µM | 17.1 µM (inactive) | 12.9 µM (inactive) | 2.07 µM (inactive) | 1.79 µM (inactive) | 8 µM (inactive) | 7.05 µM (inactive) | 4.43 µM (inactive) | 17.8 µM (inactive) | 15.9 µM (inactive) | 17.6 µM (inactive) | > 25 µM (inactive) | – | 18.1 µM (inactive) | 17.7 µM (inactive) | 2.33 µM (inactive) | 3.58 µM (inactive) | 18.6 µM (inactive) | 5.41 µM (inactive) | 2.53 µM (inactive)
O=C(/C=C1\Sc2ccccc2N=C1CC(=O)c1ccccc1)c1ccccc1 | 2.65 µM | 12.8 µM (inactive) | 7.1 µM (inactive) | 3.35 µM (inactive) | 4.12 µM (inactive) | 8.13 µM (inactive) | 6.4 µM (inactive) | 3 µM (inactive) | 2.61 µM (inactive) | 35.6 µM (inactive) | 69.7 µM (inactive) | 4.19 µM (inactive) | 5.33 µM (inactive) | 31.8 µM (inactive) | 6.52 µM (inactive) | 3.51 µM (inactive) | 3.89 µM (inactive) | 8.22 µM (inactive) | 13.2 µM (inactive) | 5.73 µM (inactive)
CCOC(=O)CC1(O)CCCCC1(Sc1ccc(C)cc1)Sc1ccc(C)cc1 (stereo not given) | 34.4 µM | 44.2 µM (inactive) | 34.4 µM (inactive) | 29.6 µM (inactive) | 32.2 µM (inactive) | 83 µM (inactive) | 31.7 µM (inactive) | 36.8 µM (inactive) | 29.9 µM (inactive) | 49.4 µM (inactive) | 81.1 µM (inactive) | 31.6 µM (inactive) | 33.8 µM (inactive) | > 100 µM (inactive) | 33.9 µM (inactive) | 48.2 µM (inactive) | 56.4 µM (inactive) | 35.5 µM (inactive) | > 100 µM (inactive) | > 100 µM (inactive)
Cc1c2ncccc2cc2oc3ccccc3c(=O)c12 | 41.8 µM | 16.1 µM (inactive) | 38.4 µM (inactive) | 28.3 µM (inactive) | 17.7 µM (inactive) | 55.8 µM (inactive) | 41.7 µM (inactive) | 11.1 µM (inactive) | 18.2 µM (inactive) | 47.9 µM (inactive) | – | 5.11 µM (inactive) | 12.9 µM (inactive) | 81.5 µM (inactive) | 56.8 µM (inactive) | > 100 µM (inactive) | 5.46 µM (inactive) | 63.4 µM (inactive) | > 100 µM (inactive) | 91.4 µM (inactive)
O=c1cc(N2CCOCC2)oc2c(-c3ccccc3)cccc12 [LY-294002] | 7.91 µM | 12.1 µM (inactive) | 3.93 µM (inactive) | 9.04 µM (inactive) | 2.39 µM (inactive) | 5.7 µM (inactive) | 2.28 µM (inactive) | 3.72 µM (inactive) | – | 3.76 µM (inactive) | 14.6 µM (inactive) | 3.09 µM (inactive) | 4.79 µM (inactive) | 2.48 µM (inactive) | 7.8 µM (inactive) | 9.68 µM (inactive) | 11.4 µM (inactive) | 11.8 µM (inactive) | 7.98 µM (inactive) | 23.7 µM (inactive)
